Measured values as given in PubChem BioAssay AID608 (Sanford-Burnham Center for Chemical Genomics, 2007).
The source made the active and inactive calls. How the calls were made is not given here.

Target: Peptidyl-prolyl cis-trans isomerase FKBP1A (Homo sapiens) (UniProt P62942)
Assay: small-molecule binding to FKBP12 – biophysical, NMR detection (AID 608)
Settings: purified FKBP12

Sequence of Peptidyl-prolyl cis-trans isomerase FKBP1A (Homo sapiens) (P62942 whole entry, looked up): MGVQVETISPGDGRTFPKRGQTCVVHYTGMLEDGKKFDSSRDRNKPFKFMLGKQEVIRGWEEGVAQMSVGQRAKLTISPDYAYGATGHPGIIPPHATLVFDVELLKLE

Compound | Kd
Cc1cc(OCC(=O)N2CCOCC2)ccc1C(C)C | inactive
CC(=O)Nc1cccc(-c2nc3ccccc3c(=O)o2)c1 | > 4 mM (inactive)
N=c1c2c3c(sc2ncn1N)CCCC3 | > 4 mM (inactive)
CCn1c(C)c(C(C)=O)c(N2CCN(C)CC2)nc1=S | > 4 mM (inactive)
COc1ccccc1NS(=O)(=O)c1c[nH]c(=O)[nH]c1=O | > 4 mM (inactive)
CN1C(=O)c2ccc(N3CCCC3)cc2C1=O | > 4 mM (inactive)
CCC(=O)NC(=S)Nc1ccc(C(N)=O)cc1 | > 4 mM (inactive)
NC(=O)C1CCN(C(=O)CN2CCc3ccccc32)CC1 | > 4 mM (inactive)
CCOC(=O)C1CCN(Cc2ccccc2)CC1 | > 4 mM (inactive)
Cc1nc2c(=O)[nH]c3ccccc3c2o1 | > 4 mM (inactive)
Cc1cc(=O)[nH]c2ccccc12 | > 4 mM (inactive)
CS(=O)(=O)c1ccc(N)cc1 | > 4 mM (inactive)
CSc1ccccc1NC(=O)c1cccnc1 | > 4 mM (inactive)
COc1ccccc1/C=C\C(=O)O | > 4 mM (inactive)
CCOC(=O)C1C(C=C(C)C)C1(C)C (stereo unspecified) | > 4 mM (inactive)
Cc1oc(-c2ccccc2)cc1C(N)=O | > 4 mM (inactive)
C=CCc1ccc2c(c1)OCO2 | > 4 mM (inactive)
O=C(NC(O)C(=O)c1ccccc1)c1ccco1 (stereo unspecified) | > 4 mM (inactive)
COC(=O)/C(C)=C\CC12OC(C)(C)C3CC(C=C4C(=O)c5c(OC)c6c(c(CC=C(C)C)c5OC431)OC(C)(CCC=C(C)C)C=C6)C2=O (stereo unspecified) | > 4 mM (inactive)
Cn1c(C(=O)O)ccc1S(N)(=O)=O | > 4 mM (inactive)
Cn1nnc2cc(C(=O)N3CCSCC3)ccc21 | > 4 mM (inactive)
NC(=O)c1ccsc1NC(=O)c1cccnc1 | > 4 mM (inactive)
Cc1ccc(CCC(N)=O)o1 | > 4 mM (inactive)
O=c1c(Cl)c(NCCO)ncn1-c1ccccc1 | > 4 mM (inactive)
O=c1c2ccccc2nc2n1CCCCN2 | > 4 mM (inactive)

Compound | Kd
Cn1ccnc1C(O)c1ccccc1 (stereo unspecified) | > 4 mM (inactive)
O=c1cc(-c2ccc(O)cc2)oc2cc(O)cc(O)c12 | > 4 mM (inactive)
CC(=O)c1ccc(NC(=O)c2ocnc2C)cc1 | > 4 mM (inactive)
COc1ccc(-c2noc(-c3ccco3)n2)cc1OC | > 4 mM (inactive)
CN1CCC2(CC1)CC1CC3C=CC1(CN2)O3 (stereo unspecified) | > 4 mM (inactive)
COc1cccc(N2CCNCC2)c1 | > 4 mM (inactive)
COc1ccc(CCC(=O)N2CCOCC2)cc1 | 0.204 mM
CSc1nc2cc(F)c(F)cc2n1C | > 4 mM (inactive)
O=C1C=CC2=C3c4cc(O)c(O)cc4C[C@@]3(O)COC2=C1 | > 4 mM (inactive)
Cc1cc(C)n(S(=O)(=O)c2ccc(C(C)(C)C)cc2)n1 | > 4 mM (inactive)
O=S1(=O)CCC(NC(=S)N2CCOCC2)C1 (stereo unspecified) | 0.0474 mM
NCC(O)c1ccc(O)cc1 (stereo unspecified) | > 4 mM (inactive)
CC(=O)O[C@H]1C[C@@H](OC(C)=O)C(C)(C)C2C[C@@H](O)[C@]3(C)C(CC[C@@]4(C)[C@H](c5ccoc5)OC(=O)[C@H]5O[C@]543)[C@]21C (stereo partly specified) | > 4 mM (inactive)
NC(=O)CC1Nc2cccc3cccc(c23)NC1=O (stereo unspecified) | > 4 mM (inactive)
OCc1nccn1Cc1ccccc1 | > 4 mM (inactive)
CC(=O)NC(O)C(=O)c1cccs1 (stereo unspecified) | > 4 mM (inactive)
Cc1ccc(C(C)C)cc2c(C)ccc1-2 | > 4 mM (inactive)
Nc1ccc(-c2csnn2)cc1 | > 4 mM (inactive)
Fc1cc2nccnc2cc1N1CCSCC1 | > 4 mM (inactive)
CSc1ncc(C(=O)O)n1Cc1ccccc1 | > 4 mM (inactive)
CC(=O)N1CCc2cc(NC(=O)c3ccc(C)cc3)ccc21 | > 4 mM (inactive)
NC(=O)CSCc1c(Cl)cccc1Cl | > 4 mM (inactive)
COc1cc(C(=S)N2CCOCC2)ccc1O | > 4 mM (inactive)
Cc1ccc(SCCN2C(=O)NC(C)(C)C2=O)cc1 | 0.27 mM
O=C1NC(=O)C(c2ccccc2)C(=O)N1 | > 4 mM (inactive)

Compound | Kd
O=c1oc(-c2ccccc2)nc2c1cnn2-c1ccccc1 | > 4 mM (inactive)
Cc1onc(-c2c(Cl)cccc2Cl)c1C(N)=O | > 4 mM (inactive)
Nc1cc(N)nc(SCc2ccccc2)n1 | > 4 mM (inactive)
CC(C)c1ccc(SC(F)(F)C(=O)N2CCOCC2)cc1 | 0.0028 mM
NCc1cccc2c1OCCO2 | > 4 mM (inactive)
COc1ccc([C@@H](C)C(=O)c2ccc(O)cc2O)cc1 | > 4 mM (inactive)
CC1(C)CC(=O)c2cnn(-c3nc4ccccc4[nH]3)c2C1 | 0.491 mM
O=C1NC(=S)S/C1=C/c1ccncc1 | > 4 mM (inactive)
CCSc1n[nH]c(=O)[nH]c1=O | > 4 mM (inactive)
COc1ccc(NC(=O)c2ccc[n+]([O-])c2)cc1 | > 4 mM (inactive)
N[C@@H](C(=O)O)[C@@H](O)[C@H](O)[C@H](O)CO | > 4 mM (inactive)
Cc1cc(=O)oc2c1c(C)nn2CN1CCN(C)CC1 | > 4 mM (inactive)
NCC(N)C(=O)c1ccccc1 (stereo unspecified) | > 4 mM (inactive)
CSc1cc(C)[nH]c(=O)n1 | > 4 mM (inactive)
Cc1cc(/C=N/O)nc(=O)[nH]1 | > 4 mM (inactive)
N[C@@H](CCC(=O)N[C@@H](CS)C(=O)NCC(=O)O)C(=O)O | > 4 mM (inactive)
CCOC(=O)c1snnc1-c1ccccc1 | > 4 mM (inactive)
O=C(Cn1c(-c2cscn2)nc2ccccc21)Nc1ccc(Oc2ccc(F)cc2)cc1 | > 4 mM (inactive)
OC[C@H]1O[C@@H](O[C@H]2[C@H](O)[C@@H](O)[C@@H](O)O[C@@H]2CO)[C@H](O)[C@@H](O)[C@@H]1O | > 4 mM (inactive)
O=C(NCC1CCNCC1)c1ccncc1 | > 4 mM (inactive)
CC(C)c1ccc(OCC(=O)N2CCOCC2)cc1 | 0.394 mM
C=C(C)[C@@H]1CC[C@]2(CO)CC[C@]3(C)[C@H](CCC4[C@@]5(C)CC[C@H](O)C(C)(C)C5CC[C@]43C)C12 (stereo partly specified) | > 4 mM (inactive)
O=C(O)Cn1nnn(-c2ccccc2)c1=S | > 4 mM (inactive)
CC(=O)NC(C)C12CC3CC(CC(C(=O)O)(C3)C1)C2 (stereo unspecified) | > 4 mM (inactive)
CN1CCN(C(=S)c2ccc(N(C)C)cc2)CC1 | > 4 mM (inactive)

Compound | Kd
CC(C)c1ccc(CCC(=O)N2CCOCC2)cc1 | 0.0023 mM
O=C(Nc1cccnc1)c1c(F)c(F)c(F)c(F)c1F | > 4 mM (inactive)
CC(=O)Nc1ccc(NC(C)=O)c(C(F)(F)F)c1 | > 4 mM (inactive)
COc1ccc(-c2ccc(SCC(N)=O)nn2)cc1 | > 4 mM (inactive)
Nc1ccccc1-c1nc2ccccc2[nH]1 | 0.286 mM
COc1ccc2c(c1)OCC(Cc1ccc(OC)c(O)c1)C2=O (stereo unspecified) | > 4 mM (inactive)
O=C1CC(NCc2ccco2)C(=O)NN1 (stereo unspecified) | > 4 mM (inactive)
CC1/C(=N/O)C[C@@H]2C[C@H]1C2(C)C (stereo partly specified) | > 4 mM (inactive)
O=C(N1CCOCC1)N1CCN(c2ccccn2)CC1 | > 4 mM (inactive)
N/N=C1\CCCc2c1no[n+]2[O-] | > 4 mM (inactive)
c1ccc(CCc2nc(-c3ccccn3)no2)cc1 | > 4 mM (inactive)
Cn1cnc2nc3n(c2c1=O)CCC3 | > 4 mM (inactive)
OCc1cccc2c1OCCO2 | > 4 mM (inactive)
Cc1ccc2cc(C(=O)O)ccc2n1 | > 4 mM (inactive)
O=C(Nc1ccc2c(c1)OCCO2)c1c(F)cccc1F | > 4 mM (inactive)
CCCCN1C(=O)C2CC/C(=N/O)CC2C1=O (stereo unspecified) | > 4 mM (inactive)
OCCCc1nc2ccccc2[nH]1 | > 4 mM (inactive)
Cc1cc(C)n2c(SCc3c(C)noc3C)nnc2n1 | > 4 mM (inactive)
CC(=O)Nc1cccc(N(C)S(C)(=O)=O)c1 | > 4 mM (inactive)
CSc1ncnc2nc[nH]c12 | > 4 mM (inactive)
C=C1CCC2C(CC2(C)C)C(=O)CCC1O (stereo unspecified) | > 4 mM (inactive)
O=S(=O)(Nc1ccc(Cl)c(Cl)c1)N1CCOCC1 | inactive
CCOC(=O)c1sc(SC)c2c1CCCC2O (stereo unspecified) | > 4 mM (inactive)
CC(C)(C)CC(=O)N1CCC(C(N)=O)CC1 | > 4 mM (inactive)
COc1cc(-c2coc3cc(OCc4ccccc4)c(OC)c(O)c3c2=O)cc(O)c1OC | > 4 mM (inactive)

Compound | Kd
CC(=O)Nc1ccc(NC(=O)N2CCOCC2)cc1 | > 4 mM (inactive)
c1ccc2c(c1)ncn2CCn1cnc2ccccc21 | > 4 mM (inactive)
Cc1ccc(C)c(C(=O)n2cnnc2N)c1 | > 4 mM (inactive)
CC(=O)Nc1nc(C)nc(-c2ccccc2)c1C(C)=O | > 4 mM (inactive)
NC(=O)C1CCN(C2CC(=O)NC2=O)CC1 (stereo unspecified) | > 4 mM (inactive)
O=C(c1cnsn1)N1CCN(c2ccccc2)CC1 | > 4 mM (inactive)
CC(=O)N1CC2(C)CN(C(C)=O)CC(C)(C1)C2O (stereo unspecified) | > 4 mM (inactive)
O=S1(=O)NC(=NCc2ccco2)c2ccccc21 | > 4 mM (inactive)
CC(=O)O[C@@H]1CC2C(C)(C)[C@H](O)C=C[C@]2(C)C2CC[C@]3(C)C(=CC(=O)O[C@H]3c3ccoc3)[C@@]21C (stereo partly specified) | > 4 mM (inactive)
O=C(/C=C/C=C/c1ccc2c(c1)OCO2)N1CCCCC1 | > 4 mM (inactive)
Cc1nc2ccccc2c(=O)n1/N=C/c1ccco1 | > 4 mM (inactive)
O=c1ccc2cc(O[C@@H]3O[C@H](CO)[C@@H](O)[C@H](O)[C@H]3O)c(O)cc2o1 | > 4 mM (inactive)
FC(F)(F)c1nnc2ccc(N3CCOCC3)nn12 | > 4 mM (inactive)
O=C(O)CNC(=O)c1ccc([N+](=O)[O-])cc1 | > 4 mM (inactive)
Cc1nnsc1C(=O)N(C)c1ccccc1 | > 4 mM (inactive)
NC(=O)CCn1c(=O)oc2ccccc21 | > 4 mM (inactive)
O=C1CC2OCC=C3CN4CC[C@]56c7ccccc7N1C5[C@H]2[C@H]3CC46 (stereo partly specified) | > 4 mM (inactive)
Nc1ccc(NS(=O)(=O)c2ccc(N)cc2)cc1 | > 4 mM (inactive)
Cc1noc(C)c1C(=O)N1CCN(c2ncccn2)CC1 | > 4 mM (inactive)
CNc1nc(C)nc(-n2nc(C)cc2C)n1 | > 4 mM (inactive)
Cc1ccc(-n2[nH]c(C)cc2=O)cc1 | > 4 mM (inactive)
